Patent US20250313563A1, “GLYCOGEN SYNTHASE KINASE 3 INHIBITORS AND USES THEREOF” (The Broad Institute, Inc., priority 2022, published 2025)
Entries after “also recorded” stand apart in the source; their conditions may differ. Where two headings read alike, the source gives them in different places.

Legend:
human GSK3β = human GSK3β (Homo sapiens (Human), UniProt P49841); experiment: pThr231 tau phosphorylation plate-based assay in HEK-huTau cells transfected with GSK3β; assay type: cell-based; settings: HEK-huTau cells transfected with human GSK3β; 10-point dose response, 2 hours; read-out: GSK3β IC50 (inhibition of pThr231)
Procedure: HEK293 or SH-SY5Y cells were obtained from American Type Culture Collection (ATCC, Manassas, VA) and cultured in Dulbecco's modified Eagle's medium (DMEM) supplemented with 10% fetal bovine serum (FBS), 10 units/ml penicillin, and 10 μg/ml streptomycin (all reagents were purchased from Gibco, Waltham, MA). Cell cultures were maintained in a humidified 5% (v/v) CO2/air environment at 37° C. When the cells reached 50-80% confluence, they were transfected with a complex consisting of a 3:1 ratio of FuGENE 6 Transfection Reagent (Promega, Madison, WI) and plasmid DNA. Plasmid DNA was balanced out across reactions using an empty plasmid so that the same amount of DNA was added per well. This transfection complex was prepared following the manufacturers protocol and added directly to the cell media for 24 or 48 hours prior to lysis.
293T cells stably expressing human 2N4R Tau were transfected with appropriate cDNA plasmids. 24 hours following transfection cells were treated with compound in a 10-point dose-response (from 1000× stocks of compound) and lysates harvested 2 hours later with cell extraction buffer (Life Technologies Cat #BN0001) or RIPA Buffer with Halt protease/phosphatase inhibitors added.
For pThr231 assay: Lysate was diluted 1:100 in assay buffer and Total Tau and pTau T231 was assessed by plate-based ELISA as per manufacturer instructions (MSD Cat #K15121D-1). Total fluorescence was measured using an Envison plate reader.
To test the potency and isoform selectivity of GSK3 small molecule inhibitors, HEK-huTau cells were transfected with plasmids containing either human GSK3α or GSK3β. Twenty-four hours after transfection, compounds were added at a 10-point dose response curve (at a range of 30 μM-3 nM) for a total of 2 hours, and cell lysates were probed for total tau and pThr231 using a plate-based assay.

[1] = system: β-catenin nuclear translocation in SH-SY5Y cells; experiment: β-catenin translocation assay; assay type: cell-based; settings: HEK-huTau GSK3α vs SH-SY5Y β-catenin
Procedure: SH-SY5Y cells were seeded into a 96-well CellCarrier Ultra (Perkin Elmer) plate at a density of 1×10^5 cells/ml in complete DMEM. Sixteen hours following plating, media was changed to DMEM with 2% serum, and compound was added with a D300e Digital Dispenser (Tecan) for an incubation time of six hours. After compound incubation, media was removed, and cells were fixed with 4% PFA for 10 minutes at room temperature. Each well was washed three times with PBS-T and then blocked with buffer (1×PBS with 5% Normal Goat Serum and 0.3% Triton X-100) for 30 minutes at room temperature. β-Catenin primary antibody (Cell Signaling #8480) was added at 1:500 dilution in blocking buffer and the cells were allowed to incubate in primary overnight at 4° C. The following day, primary antibody was removed, each well was washed three times with PBS-T, and secondary antibody (1:2000 anti-rabbit AlexaFluor Plus 488 and 1:10,000 Hoechst 33342) was added and allowed to incubate for 60 minutes at room temperature protected from light. After one-hour, secondary antibody was removed and wells were washed four times with PBS-T before imaging on the Opera Phenix. Sixteen fields per well were imaged with a 20× water lens.
Images were quantified in the Columbus Image Data Storage and Analysis software. Cells were identified using the Hoechst nuclear stain to identify individual nuclei. Intensity of the nuclear stain was also used to determine cell viability (Viable cells <30% CV of Hoechst Intensity)

[2] = system: tau phosphorylation at pThr231; experiment: Rat developmental model of tau phosphorylation; assay type: in vivo, Sprague Dawley rats; settings: P10 rats
Procedure: (§1) Sprague Dawley rats were bred in-house and litters were injected with compound, I.P. at post-natal day 10. Rats were then euthanized at indicated times following drug administration. For tissue collection, animals were euthanized via decapitation, brains were quickly removed, and bisected sagitally. The right cortex, was isolated, placed into 2 mL microtubes along with a single 5 mm stainless steel bead and the left cortex were placed into 2 mL Lysing Matrix A tubes (MP Biomedicals, Santa Ana, CA), Both tubes were immediately snap frozen in liquid nitrogen.
To determine whether a selective GSK3α inhibitor could also lower tau phosphorylation in a more physiological setting, 837646 was administered to rats at post-natal day 10. […] In the current experiment, 837646 was administered at 60, 20 and 10 mg/kg in P10 rats. The animals were sacrificed at several time points following treatment.

[3] = Drug exposure in blood and brain, free drug concentration in the brain; assay type: in vivo, Sprague Dawley rats; settings: P10 rats
Procedure: as §1
Aqueous buffered homogenate was created from cortical tissue via bead beater, at a consistent homogenization factor, which was normalized by tissue weight. Total drug in brain was determined by measuring total exposure in brain in ng/ml (cortical tissue) via LC-MS/MS. This was then corrected to free concentration via an experimentally derived fu,br using rapid equilibrium dialysis with brain homogenate.
To determine drug exposure, blood and cortical tissue were analyzed at each time point following dosing.

[4] = target: GSK3α (GST-full length GSK3α) (Homo sapiens (Human), UniProt P49840); experiment: GSK3α TR-FRET kinase assay; assay type: biochemical; settings: geometric mean, GMean
Outline: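 IC50 came from the normalized 665/615 nm TR-FRET ratio plotted against log compound concentration. The Tb-labelled pSer641 antibody and streptavidin-d2 detected phosphorylation of biotinylated S645-primed glycogen synthase peptide (200 nM) by 1 nM full-length GST-kinase. ATP was 4 μM for α, 2 μM for β, or 1 mM.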

Sequence of GSK3α (GST-full length GSK3α) (P49840 whole entry): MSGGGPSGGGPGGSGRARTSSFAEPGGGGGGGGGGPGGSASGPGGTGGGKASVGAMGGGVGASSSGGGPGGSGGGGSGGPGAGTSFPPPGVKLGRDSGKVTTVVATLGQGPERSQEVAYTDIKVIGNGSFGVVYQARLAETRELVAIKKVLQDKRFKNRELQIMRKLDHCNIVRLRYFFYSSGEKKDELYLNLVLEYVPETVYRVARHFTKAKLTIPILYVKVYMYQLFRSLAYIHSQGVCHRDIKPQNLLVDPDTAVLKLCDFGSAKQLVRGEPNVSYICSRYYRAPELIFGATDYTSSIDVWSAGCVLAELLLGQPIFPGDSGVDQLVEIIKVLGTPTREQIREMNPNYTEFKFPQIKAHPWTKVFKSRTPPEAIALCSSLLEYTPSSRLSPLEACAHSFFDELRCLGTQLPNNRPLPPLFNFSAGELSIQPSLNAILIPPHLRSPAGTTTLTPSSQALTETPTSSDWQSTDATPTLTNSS
Sequence of human GSK3β (P49841 whole entry): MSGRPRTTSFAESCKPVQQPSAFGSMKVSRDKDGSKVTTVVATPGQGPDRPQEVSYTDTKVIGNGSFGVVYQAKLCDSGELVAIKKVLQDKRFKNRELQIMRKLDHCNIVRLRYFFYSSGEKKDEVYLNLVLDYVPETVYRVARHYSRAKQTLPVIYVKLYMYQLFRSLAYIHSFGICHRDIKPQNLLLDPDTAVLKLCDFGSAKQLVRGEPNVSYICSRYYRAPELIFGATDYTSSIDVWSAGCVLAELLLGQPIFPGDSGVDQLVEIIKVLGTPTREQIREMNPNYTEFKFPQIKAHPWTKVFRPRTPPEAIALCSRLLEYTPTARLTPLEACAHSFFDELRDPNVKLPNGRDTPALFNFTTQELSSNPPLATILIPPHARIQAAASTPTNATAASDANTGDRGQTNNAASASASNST

Compound: CCC1(c2cccc(C(F)(F)F)c2)C2=C(Nc3n[nH]cc31)C(F)C(C)(C)CC2=O (single isomer, unassigned) [Compound 837646, 4-ethyl-8-fluoro-7,7-dimethyl-4-(3-(trifluoromethyl)phenyl)-2,4,6,7,8,9-hexahydro-5H-pyrazolo[3,4-b]quinolin-5-one]
- IC50 (human GSK3β): 1000 nM
- window between potency on tau phosphorylation by GSK3α and concentrations affecting β-catenin stabilization [1]: > 20 fold
- tau phosphorylation at pThr231 vs vehicle, 24 hr ([2]; I.P., 20 or 60 mg/kg, 24 hr): significantly different from the vehicle group
- tau phosphorylation at pThr231 vs vehicle, 3 hours ([2]; I.P., 60, 20 and 10 mg/kg, 3 hours after administration): significant lowering of tau phosphorylation at pThr231; also recorded: reduction in tau phosphorylation at Thr231 at all doses tested
- steady Cmax extending post injection [3]: 6 h
- IC50 ([4]; 1 nM GSK3α, 4 μM ATP, 30 minute preincubation, read-out: GSK3-A TR-FRET BIOCHEMICAL (TR-FRET), IC50): ≤ 100 nM
- IC50 ([4]; GSK3-A (TR-FRET 1 mM ATP), IC50, 1 mM ATP): ≤ 100 nM
